According to US8859653B2, “Rubber-steel cord composite” (Bridgestone Corporation, priority 2009, dated 2014):

experiment: octanol/water partition coefficient (log P) by high performance liquid chromatography according to JIS Z 7260-117 (2006); type: physicochemical
Source text: The combination which is the best mode described above can be confirmed from a numerical value of an octanol/water partition coefficient (log Pow, hereinafter abbreviated as “log P”) which is one of simple measures for evaluating a condensation property of chemicals. In the present invention, the smaller the value of log P is, the better the balance between the vulcanization speed, securing of the adhesion performance and the accumulativeness in human bodies is.
In the present invention (including examples and the like described later), the octanol/water partition coefficient (log P) described above can be measured by a high performance liquid chromatography according to JIS Z 7260-117 (2006), and it is defined by the following equation: log P=log(┌Co┘/┌Cw┘)
Co: concentration of a test substance in a 1-octanol layer
Cw: concentration of a test substance in an aqueous layer
Also, the octanol/water partition coefficients (log P) of the respective vulcanization accelerators obtained (production examples 1 to 6) were measured by a high performance liquid chromatography according to JIS Z 7260-117 (2006). A high performance liquid chromatography manufactured by Shimadzu Corporation was used.

| Structure (SMILES) | octanol/water partition coefficient (log P) |
| --- | --- |
| CC(C)N(Sc1nc2ccccc2s1)C(C)(C)C [N-i-propyl-N-t-butylbenzothiazole-2-sulpheneamide] | 5.1 |
| CCN(Sc1nc2ccccc2s1)C(C)(C)C [N-ethyl-N-t-butylbenzothiazole-2-sulpheneamide] | 4.9 |
| CN(Sc1nc2ccccc2s1)C(C)(C)C [N-methyl-N-t-butylbenzothiazole-2-sulpheneamide] | 4.5 |

More lines, now with the values ahead:

| octanol/water partition coefficient (log P) | Structure (SMILES) |
| --- | --- |
| 5.8 | CCCCN(Sc1nc2ccccc2s1)C(C)(C)C [N-n-butyl-N-t-butylbenzothiazole-2-sulpheneamide] |
| 5.3 | CCCN(Sc1nc2ccccc2s1)C(C)(C)C [N-n-propyl-N-t-butylbenzothiazole-2-sulpheneamide] |
